Where “and” joins values, the source holds several entries; their conditions need not be identical. Identical values can stand only once.
Legend:
[1] = Clinical testing of 80:20 DMA:0.9% saline formulation; format: in vivo
Solubility in water = format: physicochemical; conditions: regardless of salt content or pH
[2] = Preferred formulation system: stability; format: physicochemical
Experimental: The final administration formulation is then prepared by diluting this second formulation to the desired concentration with saline.

[3] = Solubility in a range of solvents on dilution; format: physicochemical
Experimental: The protocol adopted was as follows:
A small volume, 1-2 mL, of each solvent system was prepared and a weight of the compound in question was added. The solutions were stirred for approximately 4 hours and then […] membrane filtered. The concentration of the compound in question in the filtrate was then determined by HPLC assay.

[4] = Effect of aqueous dilution on DMA solubility and physical stability; format: physicochemical
Source text: Table 2 gives the effect of aqueous dilution on DMA solubility

[5] = DMA 45.8 mg/mL, 1:3 with 0.9% saline containing […] Tween 80
[6] = DMA 45.8 mg/mL, 1:4.5 with 0.9% saline containing […] Tween 80
[7] = DMA 55.0 mg/mL, 1:3 with 0.9% saline containing […] Tween 80
[8] = DMA 73.3 mg/mL, 1:3 with 0.9% saline containing […] Tween 80
[9] = DMA […] mg/mL, Solvent:Saline (0.9%) 1:3
[10] = PEG 400 87.7 mg/mL, 1:1 glucose
[11] = PEG 400 87.7 mg/mL, 1:2 glucose
[12] = PEG 400, 45.6 mg/mL, 1:1.5 with 0.9% saline containing […] Tween 80
[13] = PEG 400, 45.6 mg/mL, 1:2 with 0.9% saline containing […] Tween 80
[14] = PEG 400, 45.6 mg/mL, 1:2.5 with 0.9% saline containing […] Tween 80
[15] = PEG 400, 91.2 mg/mL, 1:2 with 0.9% saline containing […] Tween 80
[16] = PEG 400, 91.2 mg/mL, Solvent:Saline (0.9%) 1:1
[17] = PEG 400, 91.2 mg/mL, Solvent:Saline (0.9%) 1:2

**Q.** Which “treatment outcome in the clinical study” value ([1]; 250 mg NUC-1031 in 80:20 DMA:0.9% saline solution, 5 ml vial) does the source give for `C[C@H](NP(=O)(OC[C@H]1O[C@@H](n2ccc(N)nc2=O)C(F)(F)C1O)Oc1ccccc1)C(=O)OCc1ccccc1` (stereo partly drawn) [NUC-1031, 2′-Deoxy-2′,2′-difluoro-D-cytidine-5′-O-[phenyl (benzoxy-L-alaninyl)]phosphate] here?
**A.** successful treatment

**Q.** And the tolerability of injection ([1]; 250 mg NUC-1031 in 80:20 DMA:0.9% saline, needed to be administered by a central line)?
**A.** pain on injection

**Q.** What about the solubility in water (Solubility in water) of the same compound?
**A.** essentially insoluble in water

**Q.** And the “stability for storage and transport” value ([2]; 250 mg/mL in 80:20 (by volume) DMA:0.9% saline)?
**A.** sufficiently stable for long term storage and transport

**Q.** And the osmolarity ([2]; 4, 8 and 10 mg/mL in 0.45% and 0.9% saline)?
**A.** acceptable for peripheral administration

**Q.** And the “time stable to precipitation and to degradation after dilution” value ([2]; 4, 8 and 10 mg/mL, 0.45% and 0.9% saline, pH 4.5, 6.0 and 7.0, not stirred)?
**A.** 48 h

**Q.** What about the Appearance [3, 5] of the same compound?
**A.** Clear

**Q.** And the “NUC-1031 mg/mL HPLC assay filtrate” value [3, 5]?
**A.** 11.5 mg/mL

**Q.** What about the Appearance ([3]; DMA 45.8 mg/mL, 1:3.5 with 0.9% saline containing […] Tween 80) of the same compound?
**A.** Clear

**Q.** And the “NUC-1031 mg/mL HPLC assay filtrate” value ([3]; DMA 45.8 mg/mL, 1:4 with 0.9% saline containing […] Tween 80)?
**A.** 8.4 mg/mL

**Q.** What about the Appearance ([3]; DMA 45.8 mg/mL, 1:4 with 0.9% saline containing […] Tween 80 (precipitates >30 min, stirring precipitate dissolves)) of the same compound?
**A.** Initially clear

**Q.** And the Appearance [3, 6]?
**A.** Slightly turbid

**Q.** And the “NUC-1031 mg/mL HPLC assay filtrate” value [3, 6]?
**A.** 7.2 mg/mL

**Q.** And the Appearance [3, 7]?
**A.** Slightly turbid

**Q.** What about the “NUC-1031 mg/mL HPLC assay filtrate” value [3, 7] of the same compound?
**A.** 13.9 mg/mL

**Q.** What about the Appearance [3, 8] of the same compound?
**A.** Precipitation

**Q.** And the “NUC-1031 mg/mL HPLC assay filtrate” value [3, 8]?
**A.** 14.7 mg/mL

**Q.** And the Appearance ([3]; DMA 92.5 mg/mL, 1:1 glucose)?
**A.** Clear

**Q.** What about the “Evidence of further precipitation on storage of filtrate at RT >24 h” value (from here on “Evidence of further precipitation”) ([3]; DMA 92.5 mg/mL, 1:1 glucose) of the same compound?
**A.** No

**Q.** What about the “NUC-1031 mg/mL HPLC assay filtrate” value ([3]; DMA 92.5 mg/mL, 1:1 glucose) of the same compound?
**A.** 47.3 mg/mL

**Q.** And the Appearance ([3]; DMA 92.5 mg/mL, 1:2 glucose)?
**A.** Slightly turbid

**Q.** What about the “Evidence of further precipitation” value ([3]; DMA 92.5 mg/mL, 1:2 glucose) of the same compound?
**A.** Yes

**Q.** And the “NUC-1031 mg/mL HPLC assay filtrate” value ([3]; DMA 92.5 mg/mL, 1:2 glucose)?
**A.** 29.7 mg/mL

**Q.** What about the Appearance [3, 9] of the same compound?
**A.** Precipitation

**Q.** And the “NUC-1031 mg/mL HPLC assay filtrate” value [3, 9]?
**A.** 14.8 mg/mL

**Q.** And the “NUC-1031 mg/mL HPLC assay filtrate” value ([3]; DMA […], 1:2 with 0.9% saline containing […] Tween 80)?
**A.** 30.9 mg/mL

**Q.** And the “NUC-1031 mg/mL HPLC assay filtrate” value ([3]; DMA […], 1:3 with 0.9% saline containing […] Tween 80)?
**A.** 15.2 mg/mL

**Q.** And the “NUC-1031 mg/mL HPLC assay filtrate” value ([3]; DMA […], Solvent:Saline (0.9%) 1:1)?
**A.** 47.0 mg/mL

**Q.** And the “NUC-1031 mg/mL HPLC assay filtrate” value ([3]; DMA […], Solvent:Saline (0.9%) 1:2)?
**A.** 30.2 mg/mL

**Q.** And the Appearance ([3]; NMP 115.0 mg/mL, 1:1 glucose)?
**A.** Slightly turbid

**Q.** What about the “Evidence of further precipitation” value ([3]; NMP 115.0 mg/mL, 1:1 glucose) of the same compound?
**A.** No

**Q.** And the “NUC-1031 mg/mL HPLC assay filtrate” value ([3]; NMP 115.0 mg/mL, 1:1 glucose)?
**A.** 58.5 mg/mL

**Q.** And the Appearance ([3]; NMP 115.0 mg/mL, 1:1 saline)?
**A.** Slightly turbid

**Q.** What about the “Evidence of further precipitation” value ([3]; NMP 115.0 mg/mL, 1:1 saline) of the same compound?
**A.** No

**Q.** What about the “NUC-1031 mg/mL HPLC assay filtrate” value ([3]; NMP 115.0 mg/mL, 1:1 saline) of the same compound?
**A.** 60.0 mg/mL

**Q.** And the Appearance ([3]; NMP 115.0 mg/mL, 1:2 glucose)?
**A.** Slightly turbid

**Q.** And the “Evidence of further precipitation” value ([3]; NMP 115.0 mg/mL, 1:2 glucose)?
**A.** Yes

**Q.** And the “NUC-1031 mg/mL HPLC assay filtrate” value ([3]; NMP 115.0 mg/mL, 1:2 glucose)?
**A.** 39.6 mg/mL

**Q.** And the Appearance ([3]; NMP 115.0 mg/mL, 1:2 saline)?
**A.** Slightly turbid

**Q.** And the “Evidence of further precipitation” value ([3]; NMP 115.0 mg/mL, 1:2 saline)?
**A.** Yes

**Q.** And the “NUC-1031 mg/mL HPLC assay filtrate” value ([3]; NMP 115.0 mg/mL, 1:2 saline)?
**A.** 40.5 mg/mL

**Q.** What about the “evidence of precipitation after dilution” value ([3]; NMP and DMA solutions, dilution 1:1 with water or saline) of the same compound?
**A.** did not show any evidence of precipitation

**Q.** What about the Appearance [3, 10] of the same compound?
**A.** Slightly turbid

**Q.** And the “Evidence of further precipitation” value [3, 10]?
**A.** Yes

**Q.** What about the “NUC-1031 mg/mL HPLC assay filtrate” value [3, 10] of the same compound?
**A.** 46.1 mg/mL

**Q.** And the Appearance [3, 11]?
**A.** Turbid

**Q.** And the “Evidence of further precipitation” value [3, 11]?
**A.** No

**Q.** And the “NUC-1031 mg/mL HPLC assay filtrate” value [3, 11]?
**A.** 17.4 mg/mL

**Q.** What about the Appearance [3, 12] of the same compound?
**A.** Clear

**Q.** And the “Evidence of further precipitation” value [3, 12]?
**A.** Yes

**Q.** And the Appearance [3, 13]?
**A.** Clear

**Q.** What about the “Evidence of further precipitation” value [3, 13] of the same compound?
**A.** Yes

**Q.** And the Appearance [3, 14]?
**A.** Precipitation,

**Q.** What about the “Evidence of further precipitation” value [3, 14] of the same compound?
**A.** Yes

**Q.** And the “NUC-1031 mg/mL HPLC assay filtrate” value [3, 14]?
**A.** 10.5 mg/mL

**Q.** And the Appearance [3, 15]?
**A.** Slightly turbid

**Q.** What about the “Evidence of further precipitation” value [3, 15] of the same compound?
**A.** Yes

**Q.** And the “NUC-1031 mg/mL HPLC assay filtrate” value [3, 15]?
**A.** 18.8 mg/mL

**Q.** And the Appearance [3, 16]?
**A.** Clear

**Q.** And the “Evidence of further precipitation” value [3, 16]?
**A.** Yes

**Q.** And the Appearance [3, 17]?
**A.** Precipitation

**Q.** And the “Evidence of further precipitation” value [3, 17]?
**A.** Yes

**Q.** And the “NUC-1031 mg/mL HPLC assay filtrate” value [3, 17]?
**A.** 16.2 mg/mL

**Q.** And the Assay ([4]; 50:50 DMA:0.9% Saline)?
**A.** 66 mg/mL

**Q.** What about the “Precipitation > 24 hours” value ([4]; 50:50 DMA:0.9% Saline) of the same compound?
**A.** Yes

**Q.** What about the Assay ([4]; 60:40 DMA:0.9% Saline) of the same compound?
**A.** 293 mg/mL

**Q.** And the “Precipitation > 24 hours” value ([4]; 60:40 DMA:0.9% Saline)?
**A.** Yes

**Q.** What about the Assay ([4]; 70:30 DMA:0.9% Saline) of the same compound?
**A.** 339 mg/mL

**Q.** What about the “Precipitation > 24 hours” value ([4]; 70:30 DMA:0.9% Saline) of the same compound?
**A.** Yes

**Q.** What about the “Precipitation (2 weeks)” value ([4]; 80:20 DMA in 0.9% Saline, assay 270 mg/ml) of the same compound?
**A.** Yes

**Q.** And the “Precipitation (2 weeks)” value ([4]; 80:20 DMA in 0.9% Saline, assay 272 mg/ml)?
**A.** No

**Q.** What about the “Precipitation (2 weeks)” value ([4]; 80:20 DMA in 0.9% Saline, assay 315 mg/ml) of the same compound?
**A.** Yes

**Q.** What about the Assay ([4]; 80:20 DMA:0.9% Saline) of the same compound?
**A.** 386 mg/mL

**Q.** And the “Precipitation > 24 hours” value ([4]; 80:20 DMA:0.9% Saline)?
**A.** Yes

**Q.** And the “Precipitation (2 weeks)” value ([4]; 85:15 DMA in 0.9% Saline, assay 338 mg/ml)?
**A.** No

**Q.** And the Assay ([4]; 90:10 DMA:0.9% Saline)?
**A.** 483 mg/mL

**Q.** What about the “Precipitation > 24 hours” value ([4]; 90:10 DMA:0.9% Saline) of the same compound?
**A.** No

**Q.** And the Assay ([4]; 95:5 DMA:0.9% Saline)?
**A.** 518 mg/mL

**Q.** What about the “Precipitation > 24 hours” value ([4]; 95:5 DMA:0.9% Saline) of the same compound?
**A.** No

**Q.** And the Assay ([4]; 100% DMA)?
**A.** 592 mg/mL

**Q.** And the “Precipitation > 24 hours” value ([4]; 100% DMA)?
**A.** No

**Q.** And the Assay ([4]; Table 2a, 80:20 DMA solution in 0.9% Saline)?
**A.** 304 mg/mL and 272 mg/mL and 315 mg/mL and 270 mg/mL

**Q.** And the Assay ([4]; Table 2a, 85:15 DMA solution in 0.9% Saline)?
**A.** 338 mg/mL
